From patent US8193203B2, “Bicyclic compounds having activity at the CXCR4 receptor” (Allergan, Inc., priority 2008, dated 2012)

Target: T1, human CXCR4 receptor (Homo sapiens, UniProt P61073)
T1 construct: expressed in transfected cells
Assay: Measurement of intracellular Ca+2 responses (FLIPR), antagonism of the SDF-1α response
Type: cell-based
Conditions: for IC50: HEK-Gqi5 cells stably expressing human CXCR4, Fluo-4 FLIPR, antagonism of SDF-1α 1.9 nM (EC65); for CXCR4 (% Inh): percent antagonism of SDF-1α 1.9 nM (EC65) response, HEK-Gqi5 human CXCR4 cells, value in brackets
Description: Measurement of Intracellular Ca^+2 Responses for CXCR4 Compounds
HEK-Gqi5 cells stably expressing the human CXCR4 receptor were utilized for these studies. The growth media for the CXCR4 receptor expressing cell line was DMEM high glucose medium supplemented with 10% fetal bovine serum (FBS), 1% antibiotic-antimycotic, 50 ug/ml hygromycin B, and 400 μg/ml geneticin. Ten thousand cells per well were plated into 384-well poly-D-lysine coated plates one day prior to use. On the day of the experiment, the cells were washed twice with Hank's Balanced Salt Solution supplemented with 20 mM hepes (HBSS/hepes buffer). The cells were then dye loaded with 2 uM Fluo-4 diluted in the HBSS/Hepes buffer and incubated at 37° C. for 40 minutes. Extracellular dye was removed by washing the cell plates four times prior to placing the plates in the FLIPR (Fluorometric Imaging Plate Reader, Molecular Devices). Ligands were diluted in HBSS/Hepes buffer and prepared in 384-well microplates. The positive control, stromal-cell derived factor-1 (SDF-1α), was diluted in HBSS/Hepes buffer with 4 mg/ml fatty acid free bovine serum albumin. Two drug additions were made by the FLIPR. The first drug addition was the test drug in concentrations ranging from 2.44 nM to 40,000 nM. After this addition, fluorescent measurements were taken. Any calcium release in response to this drug addition represents agonist activity of the compounds. The second drug addition was SDF-1α at a final concentration of 1.9 nM (EC65). Fluorescence measurements were also taken after this second drug addition and were used to determine the ability of the test compounds to antagonize the SDF-1α response. Results were expressed as EC50 and efficacy values, as well as IC50 and percent antagonism values. As controls, SDF-1α (CXCR4 agonist) and AMD3100 (CXCR4 antagonist) dose-response curves were also determined in each study.

T1 sequence (P61073 whole entry): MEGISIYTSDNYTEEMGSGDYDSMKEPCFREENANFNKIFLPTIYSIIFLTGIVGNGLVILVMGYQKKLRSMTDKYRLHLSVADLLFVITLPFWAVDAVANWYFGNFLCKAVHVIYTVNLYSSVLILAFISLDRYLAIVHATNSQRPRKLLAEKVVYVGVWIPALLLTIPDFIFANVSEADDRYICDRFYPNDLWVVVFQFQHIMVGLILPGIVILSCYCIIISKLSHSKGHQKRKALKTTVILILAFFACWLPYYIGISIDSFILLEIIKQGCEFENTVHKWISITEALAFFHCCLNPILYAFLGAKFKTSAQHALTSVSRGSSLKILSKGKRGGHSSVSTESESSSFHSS

IC50 (values given in μM) [µM] | CXCR4 (% Inh) [%] | IC50 (values in nM) [µM] | SMILES
1.4 | 92 | – | COc1cccc(N(C)C)c1CN1CCC(Nc2nc(NCCCN3CCCC3=O)nc3ccccc23)CC1 [Compound 89, 1-(3-(4-(1-(2-(Dimethylamino)-6-methoxybenzyl)piperidin-4-ylamino)quinazolin-2-ylamino)propyl)pyrrolidin-2-one]
1.5 | 93 | – | COc1cccc(N(C)C)c1CN1CCC(Nc2nc(N(CCO)C(C)=O)nc3ccccc23)CC1 [Compound 90, N-(4-(1-(2-(Dimethylamino)-6-methoxybenzyl)piperidin-4-ylamino)quinazolin-2-yl)-N-(2-hydroxyethyl)acetamide]
2 | 80 | – | CCCCNc1nc(NC2CCN(Cc3c(OC)cccc3N(C)C)CC2)c2ccccc2n1 [Compound 91, N2-Butyl-N4-(1-(2-(dimethylamino)-6-methoxybenzyl)piperidin-4-yl)quinazoline-2,4-diamine]
4.3 | 79 | – | COc1cccc(N(C)C)c1CN1CCC(Nc2nc(NCC(F)(F)F)nc3ccccc23)CC1 [Compound 93, N4-(1-(2-(Dimethylamino)-6-methoxybenzyl)piperidin-4-yl)-N2-(2,2,2-trifluoroethyl)quinazoline-2,4-diamine]
– | 96 | 0.79 | COc1cccc(N(C)C)c1CN1CCC(Nc2nc(NC3CCN(C)CC3)nc3ccccc23)CC1 [Compound 94, N4-(1-(2-(Dimethylamino)-6-methoxybenzyl)piperidin-4-yl)-N2-(1-methylpiperidin-4-yl)quinazoline-2,4-diamine]
– | 98 | 0.605 | COc1cccc(N(C)C)c1CN1CCC(Nc2nc(NCCN3CC(C)OC(C)C3)nc3ccccc23)CC1 (stereo not drawn) [Compound 95, N4-(1-(2-(Dimethylamino)-6-methoxybenzyl)piperidin-4-yl)-N2-(2-(2,6-dimethylmorpholino)ethyl)quinazoline-2,4-diamine]
– | 100 | 0.24 | COc1cccc(N(C)C)c1CN1CCC(Nc2nc(NCC(C)(C)CN(C)C)nc3ccccc23)CC1 [Compound 96, N2-(3-(Dimethylamino)-2,2-dimethylpropyl)-N4-(1-(2-(dimethylamino)-6-methoxybenzyl)piperidin-4-yl)quinazoline-2,4-diamine]
– | 100 | 0.14 | COc1cccc(N(C)C)c1CN1CCC(Nc2nc(NCCC3CCCN3C)nc3ccccc23)CC1 (stereo not drawn) [Compound 97, N4-(1-(2-(Dimethylamino)-6-methoxybenzyl)piperidin-4-yl)-N2-(2-(1-methylpyrrolidin-2-yl)ethyl)quinazoline-2,4-diamine]
– | 98 | 0.624 | COc1cccc(N(C)C)c1CN1CCC(Nc2nc(NCC3CCCO3)nc3ccccc23)CC1 (stereo not drawn) [Compound 98, N4-(1-(2-(Dimethylamino)-6-methoxybenzyl)piperidin-4-yl)-N2-((tetrahydrofuran-2-yl)methyl)quinazoline-2,4-diamine]
– | 100 | 0.611 | COc1cccc(N(C)C)c1CN1CCC(Nc2nc(NCCCO)nc3ccccc23)CC1 [Compound 99, 3-(4-(1-(2-(Dimethylamino)-6-methoxybenzyl)piperidin-4-ylamino)quinazolin-2-ylamino)propan-1-ol]
1.9 | 100 | – | COc1cccc(N(C)C)c1CN1CCC(Nc2nc(NCCC#N)nc3ccccc23)CC1 [Compound 100, 3-(4-(1-(2-(Dimethylamino)-6-methoxybenzyl)piperidin-4-ylamino)quinazolin-2-ylamino)propanenitrile]

SMILES | IC50 (values given in μM) [µM] | CXCR4 (% Inh) [%] | IC50 (values in nM) [µM]
COc1cccc(N(C)C)c1CN1CCC(Nc2nc(N3CC3)nc3ccccc23)CC1 [Compound 92, 2-(Aziridin-1-yl)-N-(1-(2-(dimethylamino)-6-methoxybenzyl)piperidin-4-yl)quinazolin-4-amine] | 2.1 | 75 | –
